# According to the supplement of paper PMC11208160:
# Assay: recombinant UMI read abundance after kanamycin selection (control-corrected) (log10(CPM+1)); higher = more efficient recombination; extreme values may be limits of the assay; sequences stand for … in AGTGCAGAGAAAATCGGCCAGTTTTCTCTGCCTGCAGTCCGCATGCCGTGGGACCCCTTGGGTTCTAACCTGTTGCCTAGATTTATGCAGCGGACTGCCTTTCTCCCAAAGTGATAAACCGG…AGGTTGGTTTCACT; site = the 11-nt donor
# Method in brief: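 In a pooled Escherichia coli screen for the IS621 bridge recombinase, donor and donor-binding-loop pairs were each placed with a 12-nt UMI on a plasmid bearing a promoterless kanamycin gene. This library was co-electroporated with a target plasmid encoding a fixed target and T7-inducible recombinase, and cells were plated either on IPTG (0.07 mM) plus kanamycin or without selection, in two replicates each. Recombinant UMIs were PCR-amplified across the donor–target junction and sequenced, and counts were converted to CPM, averaged over replicates, scaled by control-derived factors and reported as log10(CPM+1).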
row,Sequence,recombinant UMI read abundance (log10)
1,CGGGAACCATGGACCGGTTTTCCCGGTAATCCGTATTTGAT (site CGGCAACCTAT),0
2,CGGGAACCATGGACCGGTTTTCCCGGTAATCCGTATTTGAT (site CGGGAAACTAT),0
3,CGGGAACCATGGACCGGTTTTCCCGGTAATCCGTATTTGAT (site CGGGAACCTAA),0.00496
4,CGGGAACCATGGACCGGTTTTCCCGGTAATCCGTATTTGAT (site CGGGAACCTAC),0.0116
5,CGGGAACCATGGACCGGTTTTCCCGGTAATCCGTATTTGAT (site CGGGAACCTAG),0
6,CGGGAACCATGGACCGGTTTTCCCGGTAATCCGTATTTGAT (site CGGGAACCTAT),0
7,CGGGAACCATGGACCGGTTTTCCCGGTAATCCGTATTTGAT (site CGGGAACCTCT),0
8,CGGGAACCATGGACCGGTTTTCCCGGTAATCCGTATTTGAT (site CGGGAACCTGT),0
9,CGGGAACCATGGACCGGTTTTCCCGGTAATCCGTATTTGAT (site CGGGAACCTTT),0.00554
10,CGGGAACCATGGACCGGTTTTCCCGGTAATCCGTATTTGAT (site CGGGAAGCTAT),0
11,CGGGAACCATGGACCGGTTTTCCCGGTAATCCGTATTTGAT (site CGGGAATCTAT),0
12,CGGGAACCATGGACCGGTTTTCCCGGTAATCCGTATTTGAT (site CGGGACCCTAT),0.0207
13,CGGGAACCATGGACCGGTTTTCCCGGTAATCCGTATTTGAT (site CGGGAGCCTAT),0
14,CGGGAACCATGGACCGGTTTTCCCGGTAATCCGTATTTGAT (site CGGGATCCTAT),0
15,CGGGAACCATGGACCGGTTTTCCCGGTAATCCGTATTTGAT (site CGGGCACCTAT),0.021
16,CGGGAACCATGGACCGGTTTTCCCGGTAATCCGTATTTGAT (site CGGGGACCTAT),0
17,CGGGAACCATGGACCGGTTTTCCCGGTAATCCGTATTTGAT (site CGGGTACCTAT),0
18,CGGGAACCATGGACCGGTTTTCCCGGTAATCCGTATTTGAT (site CGGTAACCTAT),0
19,CGGGAACCATGGACCGGTTTTCCCGGTAATCCGTATTTGAT (site CGTGAACCTAT),0
20,CGGGAACCATGGACCGGTTTTCCCGGTAATCCGTATTTGAT (site CTGGAACCTAT),0
21,CGGGAACCATGGACCGGTTTTCCCGGTAATCCGTATTTGAT (site GGGGAACCTAT),0
22,CGGGAACCATGGACCGGTTTTCCCGGTAATCCGTATTTGAT (site TGGGAACCTAT),0
23,CGGGAACCATGGACCGGTTTTCCCGGTAATCCGTATTTGGT (site CGGGAACCTAA),0.0297

row,Sequence,recombinant UMI read abundance (log10)
1,CGGGAACCATGGACCGGTTTTCCCGGTAATCCGTATTTGGT (site CGGGAACCTAC),0
2,CGGGAACCATGGACCGGTTTTCCCGGTAATCCGTATTTGGT (site CGGGAACCTAG),0
3,CGGGAACCATGGACCGGTTTTCCCGGTAATCCGTATTTGGT (site CGGGAACCTAT),0
4,CGGGAAGCATGGACCGGTTTTCCCGGTAATCCGTATTTGAT (site CGGGAAACTAT),1.7
5,CGGGAAGCATGGACCGGTTTTCCCGGTAATCCGTATTTGAT (site CGGGAACCTAT),0
6,CGGGAAGCATGGACCGGTTTTCCCGGTAATCCGTATTTGAT (site CGGGAAGCTAT),1.9
7,CGGGAAGCATGGACCGGTTTTCCCGGTAATCCGTATTTGAT (site CGGGAATCTAT),1.85
8,CGGGAATCATGGACCGGTTTTCCCGGTAATCCGTATTTGCC (site CGGGAATCTGG),2.51
9,CGGGAATCATGGACCGGTTTTCCCGGTAATCCGTATTTGCC (site CGGGACTCTGG),1.28
10,CGGGAATCATGGACCGGTTTTCCCGGTAATCCGTATTTGCC (site CGGGAGTCTGG),2.11
11,CGGGAATCATGGACCGGTTTTCCCGGTAATCCGTATTTGCC (site CGGGATTCTGG),0.646
12,CGGGACCCATGGACCGGTTTTCCCGGTAATCCGTATTTGAT (site CGGGAACCTAT),0.00853
13,CGGGACCCATGGACCGGTTTTCCCGGTAATCCGTATTTGAT (site CGGGACCCTAT),0.879
14,CGGGACCCATGGACCGGTTTTCCCGGTAATCCGTATTTGAT (site CGGGAGCCTAT),0.00629
15,CGGGACCCATGGACCGGTTTTCCCGGTAATCCGTATTTGAT (site CGGGATCCTAT),0
16,CGGGACGCATGGACCGGTTTTCCCGGTAATCCGTATTTGTA (site CGGGACGCTTA),2.82
17,CGGGACTCATGGACCGGTTTTCCCGGTAATCCGTATTTGCC (site CGGGAATCTGG),2.14
18,CGGGACTCATGGACCGGTTTTCCCGGTAATCCGTATTTGCC (site CGGGACTCTGG),3.01
19,CGGGACTCATGGACCGGTTTTCCCGGTAATCCGTATTTGCC (site CGGGAGTCTGG),0
20,CGGGACTCATGGACCGGTTTTCCCGGTAATCCGTATTTGCC (site CGGGATTCTGG),1.77
21,CGGGAGTCATGGACCGGTTTTCCCGGTAATCCGTATTTGCA (site CGGGAGTCTAG),1.74
22,CGGGAGTCATGGACCGGTTTTCCCGGTAATCCGTATTTGCA (site CGGGAGTCTCG),2.73
23,CGGGAGTCATGGACCGGTTTTCCCGGTAATCCGTATTTGCA (site CGGGAGTCTGG),1.15

row,Sequence,recombinant UMI read abundance (log10)
1,CGGGAGTCATGGACCGGTTTTCCCGGTAATCCGTATTTGCA (site CGGGAGTCTTG),2.89
2,CGGGCGTCATGGACCGGTTTTCCCGGTAATCCGTATTTGCC (site CGGGAGTCTGG),0
3,CGGGCGTCATGGACCGGTTTTCCCGGTAATCCGTATTTGCC (site CGGGCGTCTGG),2.89
4,CGGGCGTCATGGACCGGTTTTCCCGGTAATCCGTATTTGCC (site CGGGGGTCTGG),0
5,CGGGCGTCATGGACCGGTTTTCCCGGTAATCCGTATTTGCC (site CGGGTGTCTGG),0
6,CGGGGAACATGGACCGGTTTTCCCGGTAATCCGTATTTGTT (site CGAGGAACTAA),2.44
7,CGGGGAACATGGACCGGTTTTCCCGGTAATCCGTATTTGTT (site CGCGGAACTAA),0.00411
8,CGGGGAACATGGACCGGTTTTCCCGGTAATCCGTATTTGTT (site CGGGGAACTAA),2.6
9,CGGGGAACATGGACCGGTTTTCCCGGTAATCCGTATTTGTT (site CGTGGAACTAA),0.548
10,CGGGTACCATGGACCGGTTTTCCCGGTAATCCGTATTTGTA (site CGGGTACCTTA),0.00704
11,CGGGTCACATGGACCGGTTTTCCCGGTAATCCGTATTTGGC (site CGGGTCACTGC),3.54
12,CGGGTGTCATGGACCGGTTTTCCCGGTAATCCGTATTTGCC (site CGGGAGTCTGG),0.659
13,CGGGTGTCATGGACCGGTTTTCCCGGTAATCCGTATTTGCC (site CGGGCGTCTGG),1.74
14,CGGGTGTCATGGACCGGTTTTCCCGGTAATCCGTATTTGCC (site CGGGGGTCTGG),0
15,CGGGTGTCATGGACCGGTTTTCCCGGTAATCCGTATTTGCC (site CGGGTGTCTGG),2.69
16,CGGGTTCCATGGACCGGTTTTCCCGGTAATCCGTATTTGTT (site CGGAATCCTAA),0.00595
17,CGGGTTCCATGGACCGGTTTTCCCGGTAATCCGTATTTGTT (site CGGGTTCCTAA),0.776
18,CGGTAACCATGGACCGGTTTTCCCGGTAATCCGTATTTGAT (site CGGAAACCTAT),0
19,CGGTAACCATGGACCGGTTTTCCCGGTAATCCGTATTTGAT (site CGGCAACCTAT),0.00415
20,CGGTAACCATGGACCGGTTTTCCCGGTAATCCGTATTTGAT (site CGGGAACCTAT),0
21,CGGTAACCATGGACCGGTTTTCCCGGTAATCCGTATTTGAT (site CGGTAACCTAT),0
22,CGGTAGACATGGACCGGTTTTCCCGGTAATCCGTATTTGCA (site AGGAAGACTTG),0
